Source: patent US10287267B2, “Isoquinolin-3-yl carboxamides and preparation and use thereof” (Samumed, LLC, priority 2016, dated 2019)

What was measured:
[1] = tested on: SW480 colon carcinoma cells; assay: Cell viability assay (CellTiter-Glo); format: cell-based, human; conditions: Homo sapiens, 96 h; SW480 cells, CellTiter-Glo, four days incubation
[2] = target: recombinant DYRK1A kinase (Homo sapiens (Human), UniProt Q13627); assay: DYRK1A kinase assay (Ser/Thr 18 peptide Z-lyte FRET); format: biochemical; conditions: 30 μM ATP, 1 h room temperature;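 note: Read-out is the coumarin to fluorescein emission ratio, referenced to unphosphorylated (0%) and phosphorylated (100%) Ser/Thr 18 peptide controls, values from dose-response curves by non-linear regression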
[3] = tested on: IL-6; assay: IL-6 inhibition in LPS-stimulated human peripheral blood mononuclear cells (HTRF); format: cell-based; conditions: Homo sapiens, PBMC; for EC50: Table 9, huPBMCs, LPS 50 ng/mL, 22 hours, dose-response starting from 10 μM;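 for all read-outs here: IL-6 detected by HTRF with an XL665- and Cryptate-labelled anti-IL-6 antibody pair, samples run in duplicate, EC50 obtained from a four-parameter Levenberg-Marquardt curve fit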
Protocol: After 22 hour incubation, a mixture of anti-IL6 XL665 and anti-IL-6 Cryptate diluted in reconstitution buffer (Catalog #62IL6PEC, Cisbio Inc., Bedford, Mass.) was added to each well. […] All samples were processed in duplicate. […] EC50 was determined using software generated by Dotmatics Limited (Windhill Bishops Stortford Herts, UK) using the Levenberg-Marquardt 4 parameter fitting procedure with finite different gradients.

[4] = tested on: Tau phosphorylation at Ser396 (pSer396); assay: Tau phosphorylation assay (pSer396 ELISA / western blot) in SH-SY5Y cells; format: cell-based, human; conditions: Homo sapiens; SH-SY5Y cells, overnight (16-18 h) exposure; read-out: pSer396 Tau EC50;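 note: EC50 for reduction of Tau pSer396 in lysed cells, measured by colorimetric ELISA or chemiluminescent western blot, both using the same pSer396 antibody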
[5] = target: recombinant GSK3β kinase (Homo sapiens (Human), UniProt P49841); assay: GSK3β kinase assay (Ser/Thr 09 peptide Z-lyte FRET); format: biochemical; conditions: 46 μM ATP, 1 h room temperature;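 note: kinase activity read as coumarin to fluorescein emission ratio, 11-point threefold dilutions from 10 µM to 0.0003 µM in duplicate, unphosphorylated and phosphorylated peptide as 0% and 100% controls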
Chain of recombinant GSK3β kinase (P49841 whole entry): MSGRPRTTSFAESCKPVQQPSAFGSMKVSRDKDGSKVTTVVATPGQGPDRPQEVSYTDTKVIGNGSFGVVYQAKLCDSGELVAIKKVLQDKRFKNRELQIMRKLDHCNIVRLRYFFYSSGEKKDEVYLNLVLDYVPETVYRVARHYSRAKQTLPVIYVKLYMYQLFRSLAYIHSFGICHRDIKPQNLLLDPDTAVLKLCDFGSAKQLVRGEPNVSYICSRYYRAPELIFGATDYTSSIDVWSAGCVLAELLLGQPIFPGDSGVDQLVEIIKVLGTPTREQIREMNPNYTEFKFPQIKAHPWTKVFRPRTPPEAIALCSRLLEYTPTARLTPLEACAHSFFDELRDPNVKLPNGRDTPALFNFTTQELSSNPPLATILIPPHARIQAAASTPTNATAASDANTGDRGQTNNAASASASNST

[6] = tested on: Wnt pathway (Sp5-Luc reporter, TCF/LEF binding sites) in SW480 colon carcinoma cells; assay: Screening assay for Wnt activity: Sp5-Luc reporter gene assay; format: cell-based, human; conditions: Homo sapiens; for EC50: Sp5-Luc reporter, SW480 cells, 36 to 48 hours;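 for all read-outs here: firefly luciferase luminescence read in stably transduced SW480 cells carrying the Sp5 promoter reporter with eight TCF/LEF sites, compounds given in 0.1% DMSO final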
Protocol: The screening assay for Wnt activity is described as follows.
Following incubation, 15 μl of BriteLite Plus luminescence reagent (Perkin Elmer) was added to each well of the 384-well assay plates. The plates were placed on an orbital shaker for 2 min and then luminescence was quantified using the Envision (Perkin Elmer) plate reader.

[7] = tested on: α-smooth muscle actin (αSMA) positive LL29 cells; assay: Inhibition of fibrotic process: αSMA in TGF-β1 treated primary human fibroblasts from IPF patients; format: cell-based; conditions: Homo sapiens, Fibroblast; for EC50: 96 h, Table 8, LL29 fibroblasts from IPF patients, TGF-β1 20 ng/mL, 4 days, dose-response 10 μM to 0.94 nM;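 for all read-outs here: controls were TGF-β1 stimulated wells with DMSO vehicle (positive) and cells given DMSO alone (negative), cultured in F12 medium with 1% fetal bovine serum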
[8] = read-out: percent value in parentheses beside EC50 >10 μM

Structure (SMILES)	EC50 [1] [nM]	EC50 [2] [nM]	EC50 [3] [nM]	EC50 [4] [nM]	EC50 [5] [nM]	EC50 [6] [nM]	EC50 [7] [nM]	inhibition at 10 µM [3, 8] [%]	inhibition at 10 µM ([6]; SW480, read-out: percent inhibition at 10 μM) [%]	inhibition at 10 µM [7, 8] [%]
CN1CCC[C@@H]1C(=O)Nc1cc2cc(-c3cnn(C)c3)ccc2cn1 [Compound 363, (R)-1-Methyl-N-(6-(1-methyl-1H-pyrazol-4-yl)isoquinolin-3-yl)pyrrolidine-2-carboxamide]	3060	50.3	1220	406	35	2360	387	–	–	–
Cn1cc(-c2ccc3cnc(NC(=O)C4CC4)c(Cl)c3c2)cn1 [Compound 364, N-(4-Chloro-6-(1-methyl-1H-pyrazol-4-yl)isoquinolin-3-yl) cyclopropanecarboxamide]	5600	840	> 10000	> 10000	3120	> 10000	> 10000	5.8	24.1	15
Cn1cc(-c2ccc3cnc(NC(=O)[C@H]4CC[C@H](N)CC4)cc3c2)cn1 [Compound 365, trans-4-Amino-N-(6-(1-methyl-1H-pyrazol-4-yl)isoquinolin-3-yl) cyclohexane-1-carboxamide]	522	2.7	526	1200	52	381	4800	–	–	–
Cn1cc(-c2cc(F)c3cnc(NC(=O)C4CCNCC4)cc3c2)cn1 [Compound 366, N-(8-Fluoro-6-(1-methyl-1H-pyrazol-4-yl)isoquinolin-3-yl)piperidine-4-carboxamide]	910	10.6	1120	1100	116	334	173	–	–	–
CC(C)CN1CCC(C(=O)Nc2cc3cc(-c4cnn(C)c4)cc(F)c3cn2)CC1 [Compound 367, N-(8-Fluoro-6-(1-methyl-1H-pyrazol-4-yl)isoquinolin-3-yl)-1-isobutylpiperidine-4-carboxamide]	8240	11.1	1150	258	56	524	211	–	–	–
Cn1cc(-c2cc(F)c3cnc(NC(=O)C4CCN(CCF)CC4)cc3c2)cn1 [Compound 368, N-(8-Fluoro-6-(1-methyl-1H-pyrazol-4-yl)isoquinolin-3-yl)-1-(2-fluoroethyl) piperidine-4-carboxamide]	651	7.9	1190	660	51	689	272	–	–	–
Cn1cc(-c2cc3cc(NC(=O)C4CCNCC4)ncc3cc2F)cn1 [Compound 369, N-(7-Fluoro-6-(1-methyl-1H-pyrazol-4-yl)isoquinolin-3-yl)piperidine-4-carboxamide]	864	2.8	1130	970	101	743	295	–	–	–
CC(C)CN1CCC(C(=O)Nc2cc3cc(-c4cnn(C)c4)c(F)cc3cn2)CC1 [Compound 370, N-(7-Fluoro-6-(1-methyl-1H-pyrazol-4-yl)isoquinolin-3-yl)-1-isobutylpiperidine-4-carboxamide]	1250	3.1	3710	256	89	608	379	–	–	–
Cn1cc(-c2cc3cc(NC(=O)C4CCN(CCF)CC4)ncc3cc2F)cn1 [Compound 371, N-(7-Fluoro-6-(1-methyl-1H-pyrazol-4-yl)isoquinolin-3-yl)-1-(2-fluoroethyl) piperidine-4-carboxamide]	1060	2.4	1210	581	23	643	394	–	–	–
